Like-named read-outs stand apart in the source and are kept apart here.
Key:
Format in all cases: cell-based
[1] = test system: K-562; test: NCI in vitro cytotoxicity (SRB, 48 h), Leukemia panel; conditions: Homo sapiens, K562; K-562, Leukemia; 48 h exposure
[2] = test system: NCI-H226; test: NCI in vitro cytotoxicity (SRB, 48 h), Non-small cell lung panel; conditions: Homo sapiens, 48 h exposure
[3] = test system: Ovarian cancer cell lines; test: NCI in vitro cytotoxicity, whole panel; conditions: Homo sapiens
[4] = test system: A549/ATCC; test: NCI in vitro cytotoxicity (SRB, 48 h), Non-small cell lung panel; conditions: Homo sapiens, 48 h exposure
[5] = test system: Melanoma cell lines; test: NCI in vitro cytotoxicity, whole panel; conditions: Homo sapiens
[6] = test system: OVCAR-5; test: NCI in vitro cytotoxicity (SRB, 48 h), Ovarian panel; conditions: Homo sapiens
[7] = test system: SF-295; test: NCI in vitro cytotoxicity (SRB, 48 h), CNS panel; conditions: Homo sapiens; SF-295, CNS; 48 h exposure
[8] = test system: Prostate cancer cell lines; test: NCI in vitro cytotoxicity, whole panel; conditions: Homo sapiens
[9] = test system: IGROV1; test: NCI in vitro cytotoxicity (SRB, 48 h), Ovarian panel; conditions: Homo sapiens, IGROV-1
[10] = test system: SF-539; test: NCI in vitro cytotoxicity (SRB, 48 h), CNS panel; conditions: Homo sapiens; SF-539, CNS; 48 h exposure
[11] = test system: ACHN; test: NCI in vitro cytotoxicity (SRB, 48 h), Renal panel; conditions: Homo sapiens, 48 h exposure
[12] = test system: TK-10; test: NCI in vitro cytotoxicity (SRB, 48 h), Renal panel; conditions: Homo sapiens; TK-10, Renal; 48 h exposure
[13] = test system: U251; test: NCI in vitro cytotoxicity (SRB, 48 h), CNS panel; conditions: Homo sapiens, U-251, 48 h exposure
[14] = test system: 786-0; test: NCI in vitro cytotoxicity (SRB, 48 h), Renal panel; conditions: Homo sapiens; 786-0, Renal; 48 h exposure
[15] = test system: Renal cancer cell lines; test: NCI in vitro cytotoxicity, whole panel; conditions: Homo sapiens
[16] = test system: Breast cancer cell lines; test: NCI in vitro cytotoxicity, whole panel; conditions: Homo sapiens
[17] = test system: CAKI-1; test: NCI in vitro cytotoxicity (SRB, 48 h), Renal panel; conditions: Homo sapiens
[18] = test system: NCI-H460; test: NCI in vitro cytotoxicity (SRB, 48 h), Non-small cell lung panel; conditions: Homo sapiens, 48 h exposure
[19] = test system: LOX IMVI; test: NCI in vitro cytotoxicity (SRB, 48 h), Melanoma panel; conditions: Homo sapiens, 48 h exposure
[20] = test system: HOP-62; test: NCI in vitro cytotoxicity (SRB, 48 h), Non-small cell lung panel; conditions: Homo sapiens; HOP-62, Non-small cell lung; 48 h exposure
[21] = test system: CCRF-CEM; test: NCI in vitro cytotoxicity (SRB, 48 h), Leukemia panel; conditions: Homo sapiens, 48 h exposure
[22] = test system: HCT-116; test: NCI in vitro cytotoxicity (SRB, 48 h), Colon panel; conditions: Homo sapiens
[23] = test system: OVCAR-3; test: NCI in vitro cytotoxicity (SRB, 48 h), Ovarian panel; conditions: Homo sapiens; OVCAR-3, Ovarian; 48 h exposure
[24] = test system: HCT-15; test: NCI in vitro cytotoxicity (SRB, 48 h), Colon panel; conditions: Homo sapiens; HCT-15, Colon; 48 h exposure
[25] = test system: OVCAR-8; test: NCI in vitro cytotoxicity (SRB, 48 h), Ovarian panel; conditions: Homo sapiens
[26] = test system: SK-MEL-28; test: NCI in vitro cytotoxicity (SRB, 48 h), Melanoma panel; conditions: Homo sapiens; SK-MEL-28, Melanoma; 48 h exposure
[27] = test system: SNB-75; test: NCI in vitro cytotoxicity (SRB, 48 h), CNS panel; conditions: Homo sapiens; SNB-75, CNS; 48 h exposure
[28] = test system: NCI-H23; test: NCI in vitro cytotoxicity (SRB, 48 h), Non-small cell lung panel; conditions: Homo sapiens, 48 h exposure
[29] = test system: Non-small-cell lung cancer cell lines; test: NCI in vitro cytotoxicity, whole panel; conditions: Homo sapiens
[30] = test system: HS 578T; test: NCI in vitro cytotoxicity (SRB, 48 h), Breast panel; conditions: Homo sapiens, 48 h exposure
[31] = test system: SF-268; test: NCI in vitro cytotoxicity (SRB, 48 h), CNS panel; conditions: Homo sapiens; SF-268, CNS; 48 h exposure
[32] = test system: MDAMB-435; test: NCI in vitro cytotoxicity (SRB, 48 h), Melanoma panel; conditions: Homo sapiens, MDA-MB-435; MDAMB-435, Melanoma; 48 h exposure
[33] = test system: COLO 205; test: NCI in vitro cytotoxicity (SRB, 48 h), Colon panel; conditions: Homo sapiens; COLO 205, Colon; 48 h exposure
[34] = test system: MOLT-4; test: NCI in vitro cytotoxicity (SRB, 48 h), Leukemia panel; conditions: Homo sapiens; MOLT-4, Leukemia; 48 h exposure
[35] = test system: M14; test: NCI in vitro cytotoxicity (SRB, 48 h), Melanoma panel; conditions: Homo sapiens, 48 h exposure

Q: What does the source list for `COc1ccc(-c2nc3sccn3c2/C=C/C(=O)c2cc(OC)c(OC)c(OC)c2)cc1` [Compound 7a, (E)-3-(6-(4-methoxyphenyl)imidazo[2,1-b]thiazol-5-yl)-1-(3,4,5-trimethoxyphenyl) prop-2-en-1-one]?
A: GI50 [1]: 1720 nM; GI50 [2]: 2580 nM; GI50 ([3]; Ovarian, average of six to eight cell lines, read-out: Log10 GI50 (converted)): 1860 nM; CC50 ([3]; Ovarian, average of six to eight cell lines, read-out: Log10 LC50 (converted)): 70800 nM; GI50 ([3]; exposure period of at least 48 hrs, read-out: GI50, range over ovarian cell lines): 210 to 4050 nM; GI50 [4]: 2210 nM; GI50 ([5]; Melanoma, average of six to eight cell lines, read-out: Log10 GI50 (converted)): 2630 nM; CC50 ([5]; Melanoma, average of six to eight cell lines, read-out: Log10 LC50 (converted)): 70800 nM; GI50 ([5]; exposure period of at least 48 hrs, read-out: GI50, range over melanoma cell lines): 1300 to 5420 nM; GI50 ([6]; OVCAR-5, Ovarian, 48 h exposure): 1990 nM; GI50 ([6]; OVCAR-5, ovarian): 1990 nM; GI50 [7]: 2730 nM; GI50 ([8]; Prostate cell, exposure period of at least 48 hrs, read-out: GI50, range over prostate cell lines): 2620 to 3100 nM; GI50 ([8]; Prostate, average of the panel's cell lines, read-out: Log10 GI50 (converted)): 2880 nM; LC50 ([8]; Prostate, average of the panel's cell lines, read-out: Log10 LC50 (converted)): ≥ 100000 nM; GI50 ([9]; IGROV1, Ovarian, 48 h exposure): 210 nM; GI50 ([9]; IGROV1, ovarian): 210 nM; IC50 ([9]; IGROV1, Table 4, read-out: Comparative efficacy): 210 nM; GI50 [10]: 1660 nM; GI50 [11]: 4080 nM; GI50 [12]: 5040 nM; GI50 [13]: 3050 nM; GI50 [14]: 2580 nM; GI50 ([15]; Renal, average of six to eight cell lines, read-out: Log10 GI50 (converted)): 2510 nM; CC50 ([15]; Renal, average of six to eight cell lines, read-out: Log10 LC50 (converted)): ≥ 100000 nM; GI50 ([15]; exposure period of at least 48 hrs, read-out: GI50, range over renal cell lines): 1120 to 5040 nM; GI50 ([16]; Breast, average of six to eight cell lines, read-out: Log10 GI50 (converted)): 2510 nM; CC50 ([16]; Breast, average of six to eight cell lines, read-out: Log10 LC50 (converted)): ≥ 100000 nM; IC50 ([16]; exposure period of at least 48 hrs, read-out: IC50, range over breast cell lines): 1900 to 3460 nM; GI50 ([17]; CAKI-1, Renal, 48 h exposure): 1200 nM; IC50 ([17]; CAKI-1, Table 4, read-out: Comparative efficacy): 1200 nM; GI50 [18]: 2700 nM; GI50 [19]: 2420 nM; GI50 [20]: 2210 nM; GI50 [21]: 3080 nM; IC50 ([22]; HCT-116, HCT116, Table 4, read-out: Comparative efficacy): 1880 nM; GI50 ([22]; HCT-116, Colon, 48 h exposure): 1880 nM; GI50 ([22]; HCT-116, colon): 1880 nM; GI50 [23]: 2230 nM; GI50 [24]: 3450 nM; GI50 ([25]; OVCAR-8, Ovarian, 48 h exposure): 2010 nM; GI50 ([25]; OVCAR-8, ovarian): 2010 nM; GI50 [26]: 4110 nM; GI50 [27]: 2290 nM; GI50 [28]: 2180 nM; GI50 ([29]; Non-small-cell lung, average of six to eight cell lines, read-out: Log10 GI50 (converted)): 1950 nM; CC50 ([29]; Non-small-cell lung, average of six to eight cell lines, read-out: Log10 LC50 (converted)): 95500 nM; GI50 ([29]; exposure period of at least 48 hrs, read-out: GI50, range over lung cell lines): 240 to 3700 nM; GI50 [30]: 1900 nM; GI50 [31]: 2890 nM; GI50 [32]: 2850 nM; GI50 [33]: 2520 nM; GI50 [34]: 2520 nM; GI50 [35]: 2330 nM
